Columns and labels:
K562 = assay: Cell proliferation inhibition, Cell Titer-Glo, K562; type: cell-based; conditions: Homo sapiens; cell proliferation assay, K562 cells
Method in brief: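 K562 cells were seeded at 2500-5000 cells per well in white, clear-bottomed 384-well culture plates and treated with dilutions of test compounds for typically 3 days. Viable cells were quantified with the Cell Titer-Glo Luminescent Cell Viability Assay (Promega), which measures total ATP, read on a luminescence plate reader to derive IC50 values for proliferation inhibition.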

H929 (multiple myeloma) = assay: Cell proliferation inhibition, Cell Titer-Glo, H929; type: cell-based; conditions: Homo sapiens, NCI-H929; cell proliferation assay, H929 cells
Method in brief: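 Cells seeded at 2500-5000 per well with serially diluted compound for typically 3 days. Viable cells measured by ATP luminescence (Cell Titer-Glo); IC50 from proliferation-inhibition curves.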

[1] = test system: HEK293 (human normal embryonic kidney); assay: Cell proliferation inhibition, Cell Titer-Glo, HEK293; type: cell-based; conditions: cell proliferation assay, HEK293 cells, read-out: HEK 293 IC50
Description: (§1) IGF1R and other tyrosine kinase inhibitors can inhibit the proliferation of certain cancer cell lines indicating their possible therapeutic utility for treating the corresponding cancer types. Cancer cell lines of interest and control normal lines, including CHO, HEK293, BA/F3, MM1, H929, COLO205, PC3, DU145, MCF7, Panc1, ACHN, Hep G2, H460, K562, TT, U87-G, CAOV-3, SK-MEL5, Karpas 299, are plated in white, clear-bottomed 384-well cell culture plates at 2500-5000 cells per well and supplied with dilutions of tested compounds After a desired period of time (typically 3 days), the number of viable cells is quantitated by using Cell Titer-Glo Luminescent Cell Viability Assay (Promega), a cell proliferation assay system based on detection of total amount of ATP present as a measure of cell metabolic activity. The plated cells are mixed with the Cell Titer-Glo developing reagent and counted in a luminescence multiwell plate reader according to the standard manufacturer's protocol to generate IC50 curves for cell proliferation inhibition.
(§2) IGF1R and other tyrosine kinase inhibitors can inhibit the proliferation of certain cancer cell lines indicating their possible therapeutic utility for treating the corresponding cancer types. Cancer cell lines of interest and control normal lines, including CHO, HEK293, BA/F3, COLO205, PC3, DU145, MCF7, Panc1, ACHN, Hep G2, H460, K562, TT, U87-MG, CAOV-3, SK-MEL5, Karpas 299 and human multiple myeloma cell lines H929, MM1s, MM1r, UTMC2, CPM2, KMS11, My5, KMS12PE, My7, JJN3, KMS18, U266, SKMM2, RPMI-8226 are plated in white, clear-bottomed 384-well cell culture plates at 2500-5000 cells per well and supplied with dilutions of tested compounds After a desired period of time (typically 3 days), the number of viable cells is quantitated by using Cell Titer-Glo Luminescent Cell Viability Assay (Promega), a cell proliferation assay system based on detection of total amount of ATP present as a measure of cell metabolic activity. The plated cells are mixed with the Cell Titer-Glo developing reagent and counted in a luminescence multiwell plate reader according to the standard manufacturer's protocol to generate IC50 curves for cell proliferation inhibition. Results are typically reported as percent of growth (% viability =(OD72h(compound)−ODday0))/(OD72h(no compound)−ODday0). Alternatively, viable cells are quantitated by using the conventional colorimetric MTT assay. The MTT assay is based on the cleavage of the yellow tetrazolium salt MTT to purple formazan crystal by metabolic active cells. The formazan is then solubilized, and the concentration determined by optical density at 570 nm. The cells plated and incubated with a compound as described above are supplemented with the solution of MTT and incubated for 2-3 hours. The growth medium is removed and dimethyl sulfoxide is added into each well to dissolve the formazan. The absorbance is measured on an ELISA plate reader with a test wavelength of 570 nm and a background subtraction wavelength of 630 nm to obtain sample signal (OD570-OD630). […] The results are reported in terms of IC50 value for a particular compound and a cell line in the standard 3-day proliferation assay using Cell Titer-Glo. […] The results are reported in terms of IC50 value for a particular compound and a cell line in the standard 3-day proliferation assay using MTT assay.

Karpas-299 = assay: Cell proliferation inhibition, Cell Titer-Glo, Karpas-299; type: cell-based; conditions: Homo sapiens; cell proliferation assay, Karpas-299 cells
Method in brief: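 Karpas 299 cells were seeded into white, clear-bottomed 384-well culture plates at 2500-5000 cells per well and exposed to serial dilutions of test compounds for about 3 days. Viable cell numbers were then measured with the Cell Titer-Glo Luminescent Cell Viability Assay (Promega), which detects total ATP, and IC50 values for proliferation inhibition were derived.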

[2] = test system: CHO (chinese hamster ovary); assay: Cell proliferation inhibition, Cell Titer-Glo, CHO; type: cell-based; conditions: Cricetulus griseus; cell proliferation assay, CHO cells
Description: as §1, §2

TrkA = molecular target: T1, TrkA (Homo sapiens, UniProt P04629); assay: Tyrosine kinase assay (Kinase-Glo or AlphaScreen), TrkA; conditions: biochemical tyrosine kinase assay
T1 construct: 6×His- or GST-tagged kinase domain fragments of the corresponding RTKs expressed in baculovirus system; host or cells: baculovirus system
T1 sequence (P04629 510-781 limits assumed, species assumed): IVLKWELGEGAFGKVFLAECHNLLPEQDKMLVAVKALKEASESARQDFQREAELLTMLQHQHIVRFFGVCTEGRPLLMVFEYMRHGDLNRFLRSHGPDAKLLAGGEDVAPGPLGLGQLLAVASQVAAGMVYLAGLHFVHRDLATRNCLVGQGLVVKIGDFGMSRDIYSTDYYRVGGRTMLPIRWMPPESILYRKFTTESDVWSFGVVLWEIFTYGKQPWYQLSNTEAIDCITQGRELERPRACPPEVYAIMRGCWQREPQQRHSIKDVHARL
Description: To determine inhibition of several tyrosine kinases, such as IGF1R, InsR, Alk, TrkA and Jak2, kinase assays are conducted using either Kinase-Glo (Promega) or AlphaScreen (PerkinElmer) kinase assay platforms. The Kinase-Glo Luminescent Kinase Assay is a homogeneous method for measuring kinase activity by determining the amount of ATP remaining after a kinase reaction. The luminescent signal is proportional to the amount of ATP and inversely proportional to the amount of kinase activity. Tyrosine kinase PT66 AlphaScreen Assay is a high-sensitivity homogeneous, anti-phosphotyrosine antibody-mediated luminescent proximity method measuring, incorporation of phosphate in synthetic poly(Glu-Tyr) substrate. The kinase preparations used consist of purified recombinant, 6×His- or GST-tagged kinase domain fragments of the corresponding RTKs expressed in baculovirus system.
The IGF1R tyrosine kinase is assayed in Kinase-Glo ATP depletion assay using the synthetic polymer poly(Glu-Tyr, 4:1) (Sigma Chemicals) as a phosphoacceptor substrate. Each reaction mixture consists of a total volume of 10 μl and contains 40 ng of the enzyme, 5 μg of poly(Glu-Tyr), 10 μM of ATP and variable concentrations of test compounds. The mixtures also contain 50 mM Tris-HCl, pH 7.5; 5 mM MgCl2; 5 mM MnCl2; 2 mM DTT and 0.01% Tween 20. The reaction mixtures are incubated at 37° C. for 60 minutes and residual concentration of ATP in the mixture is determined by adding luciferase-containing Kinase-Glo (Promega) development reagent and counting luminescence levels using Fusion Universal Microplate Analyzer (PerkinElmer). Tested compounds are dissolved in dimethyl sulfoxide to a stock concentration of 10 mM and are typically evaluated in the assay at eight concentrations in 1 nM to 20 μM range, each in quadruplicate. […] IC50 values are derived by non-linear regression analysis using Prism 3.0 software (Graphpad Software). Other tyrosine kinases are assayed according to the same protocol after titrating amount of the enzyme to provide optimal signal-to-noise ratio and no more than 30% of total ATP consumption in the reaction conditions used.
The IGF1R tyrosine kinase is assayed in Phosphotyrosine (PT66 or PT 100) AlphaScreen chemiluminescent assay (PerkinElmer) according to the manufacturerer's recommendations. Each kinase reaction mixture consists of a total volume of 15 μl and contains 0.1-1 ng of the enzyme, 7 ng of biotinylated poly(Glu-Tyr) (Cis-Bio), 10 μM of ATP and variable concentrations of test compounds. The mixtures also contain 50 mM Tris-HCl, pH 7.5; 5 mM MgCl2; 5 mM MnCl2; 2 mM DTT and 0.01% Tween 20. The reaction mixtures are incubated at room temperature for 30 minutes. Ten (10) μl of the mixture of […] and donor beads (as supplied by the manufacturer) is then added to the reaction and the incubation is continued for an additional 60 minutes.

Row | Structure (SMILES) | IC50 (K562) [µM] | IC50 (H929 (multiple myeloma)) [µM] | IC50 (Karpas-299) [µM] | IC50 (TrkA) [nM] | IC50 [1] [µM] | IC50 [2] [µM]
1 | C[C@H](O)CN1C(=O)c2cc3nc(-c4c(NC[C@@H](O)c5cccc(Cl)c5)cc[nH]c4=O)[nH]c3cc2C1=O [compound 31] | 5 to 15 | 0.5 to 5 | > 15 |  | 5 to 15 | 
2 | Cc1ccc(OC[C@H](O)CNc2cc[nH]c(=O)c2-c2nc3cc4c(cc3[nH]2)CN(C2CCN(C)CC2)C4=O)c(C)c1 [compound 130] | > 15 | 0.5 to 5 |  |  | > 15 | > 15
3 | CCc1cc(C)ccc1OC[C@H](O)CNc1cc[nH]c(=O)c1-c1nc2cc3c(cc2[nH]1)CN(C1CCN(C)CC1)C3=O [compound 141] | > 15 | < 0.5 |  |  | > 15 | > 15
4 | Cc1ccc(OC[C@H](O)CNc2cc[nH]c(=O)c2-c2nc3cc4c(cc3[nH]2)C(=O)N(C2CCN(C)CC2)C4=O)c(C)c1 [compound 59] | 5 to 15 | 0.5 to 5 | 0.5 to 5 |  | 5 to 15 | 
5 | Cc1ccc(OC[C@H](O)CNc2cc[nH]c(=O)c2-c2nc3c(C)c4c(cc3[nH]2)CN(C2CCN(C)CC2)C4=O)c(C)c1 [compound 140] | 5 to 15 | < 0.5 |  |  | 5 to 15 | > 15
6 | CCN1CCC(N2Cc3cc4nc(-c5c(NC[C@@H](O)COc6ccc(C)cc6C)cc[nH]c5=O)[nH]c4cc3C2=O)CC1 [compound 144] | > 15 | 0.5 to 5 |  |  | 5 to 15 | 5 to 15
7 | Cc1ccc(OC[C@H](O)CNc2cc[nH]c(=O)c2-c2nc3c(C)c4c(cc3[nH]2)C(=O)N(C2CCN(C)CC2)C4)c(C)c1 [compound 139] | > 15 | 0.5 to 5 |  |  | > 15 | > 15
8 | CN1CCC(N2C(=O)c3cc4nc(-c5c(NC[C@@H](O)COc6c(F)ccc(Cl)c6F)cc[nH]c5=O)[nH]c4cc3C2=O)CC1 [compound 95] | 5 to 15 | 5 to 15 | 5 to 15 |  | 5 to 15 | 
9 | Cc1cc(C)c(OC[C@H](O)CNc2cc[nH]c(=O)c2-c2nc3cc4c(cc3[nH]2)C(=O)N(C2CCN(C)CC2)C4=O)c(CS(C)(=O)=O)c1 [compound 84] | > 15 | 0.5 to 5 | > 15 |  |  | 
10 | CN1CCC(N2C(=O)c3cc4nc(-c5c(NC[C@@H](O)COc6ccc7ccccc7c6)cc[nH]c5=O)[nH]c4cc3C2=O)CC1 [compound 88] | 5 to 15 | 5 to 15 | 5 to 15 |  |  | 

The next lines start with results.

Row | IC50 (K562) [µM] | IC50 (H929 (multiple myeloma)) [µM] | IC50 (Karpas-299) [µM] | IC50 (TrkA) [nM] | Structure (SMILES) | IC50 [1] [µM] | IC50 [2] [µM]
11 | > 15 | 0.5 to 5 | 5 to 15 |  | COc1ccc(OC[C@H](O)CNc2cc[nH]c(=O)c2-c2nc3cc4c(cc3[nH]2)C(=O)N(C2CCN(C)CC2)C4=O)c(OC)c1OC [compound 93] | 5 to 15 | 
12 | > 15 | 5 to 15 | > 15 |  | Cc1c(Cl)cccc1OC[C@H](O)CNc1cc[nH]c(=O)c1-c1nc2cc3c(cc2[nH]1)C(=O)N(C1CCN(C)CC1)C3=O [compound 94] | > 15 | 
13 | 5 to 15 | 0.5 to 5 |  |  | CN1CCC(N2C(=O)c3cc4nc(-c5c(NC[C@@H](O)c6cccc(Cl)c6)cc[nH]c5=O)[nH]c4cc3C2=O)CC1 [compound 1] | 5 to 15 | 
14 |  | 5 to 15 |  |  | CCN1CCC(N2C(=O)c3cc4nc(-c5c(NC[C@@H](O)COc6ccc(C)cc6C)cc[nH]c5=O)[nH]c4cc3C2=O)CC1 [compound 143] | > 15 | > 15
15 | 5 to 15 |  |  |  | Cc1ccc(OC[C@H](O)CNc2cc[nH]c(=O)c2-c2nc3cc4c(cc3[nH]2)C(=O)N(C2CCNCC2)C4=O)c(C)c1 [compound 142] | 5 to 15 | 5 to 15
16 | > 15 | 5 to 15 | > 15 |  | CN1CCC(N2C(=O)c3cc4nc(-c5c(NC[C@@H](O)COc6cccc(C(F)(F)F)c6)cc[nH]c5=O)[nH]c4cc3C2=O)CC1 [compound 97] | > 15 | 
17 |  |  | 5 to 15 |  | Cc1cc(C)c(OC[C@H](O)CNc2cc[nH]c(=O)c2-c2nc3cc4c(cc3[nH]2)C(=O)N(C2CCN(C)CC2)C4=O)cc1Cl [compound 108] | 5 to 15 | 
18 | 0.5 to 5 | 0.5 to 5 |  | < 500 | Cc1ccc(OCC(O)CNc2cc[nH]c(=O)c2-c2nc3cc4c(cc3[nH]2)C(=O)N(C2CCN(C)CC2)C4=O)c(C)c1 (stereo not drawn) [compound 15] | 5 to 15 | 
19 | 5 to 15 | 5 to 15 | 0.5 to 5 |  | Cc1ccc(OC[C@H](O)CNc2cc[nH]c(=O)c2-c2nc3c(C)c4c(cc3[nH]2)C(=O)N(C2CCN(C)CC2)C4=O)c(C)c1 [compound 110] |  | 
20 | > 15 | < 0.5 |  |  | Cc1ccc(OC[C@H](O)CNc2cc[nH]c(=O)c2-c2nc3cc4c(c(C)c3[nH]2)CN(C2CCN(C)CC2)C4=O)c(C)c1 [compound 132] | > 15 | > 15
